Results from US6630123B1, “Method to enhance tissue accumulation of radiolabeled compounds” (Board of Supervisors of Louisiana State University and …, priority 1997, dated 2003).
Where no end group is shown, it is not given here.

Experiments:
IMR-32 cells = assay: Nuclear translocation, Percoll density gradient fractionation; format: cell-based, human
Procedure: The cells were washed twice in media at 4° C. and resuspended in cold isotonic sucrose. The labeled cells were passed through a ballbearing homogenizer three times to disrupt cell membranes while leaving approximately 95% of the cell nuclei intact, according to the method of Balch et al., Arch. Biochem. Biophys., vol. 240, p. […] The cell homogenate was mixed with Percoll to give a final concentration of 0.292% Percoll and spun at 20,400 rpm in a Beckman 40.2 rotor for 45 min to generate a density gradient. Density marker beads (Pharmacia) were used to indicate density levels in the tube. The contents of the tube were fractionated in an ISCO Density Gradient Fractionator. The resulting tubes were assayed for content of radiolabeled somatostatin or analogs, DNA to indicate nuclei, protein, the plasma membrane marker 5′-nucleotidase, and the lysosome marker N-acetylglucosaminidase. The usual assumption was made that the radioactivity measured in fractions rich in a certain cell component was in fact associated with that component; e.g., the radioactivity measured in a fraction rich in plasma membrane was due to association of the radiolabeled compound with the plasma membrane.

[1] = cited from earlier work
[2] = tested on: T47D breast cancer cell line; assay: Specific binding of radiolabeled estradiol with time, T47D; format: cell-based, human; conditions: T-47D
Procedure: (§1) To follow the time of uptake of a steroid hormone, three cell lines were incubated with a radiolabeled estrogen using procedures similar to those of Example 2. Three breast cancer cell lines were used; MCF-7 (ATCC No. HTB-22), T47D (ATCC No. HTB-133), and ZR-75-1 (ATCC No. CRL-1500). The estrogen used was 17-β-estradiol, the major secreted estrogen in humans. The radiolabeled compound was ^125I-17-β-estradiol, which was either purchased from New England Nuclear or synthesized by the following procedure: A 10 ml Sephadex G-10 column was equilibrated for 1 hr with 0.1 M PBS. A solution was prepared of 12.5 μg estradiol conjugate (BL-43), 25 μl methanol, 50 μl 0.05 M phosphate buffer pH 7.5, 3 mCi Na^125I, and 25 μl of a mixture of 10 mg chloramine-T and 10 ml 0.05 M phosphate buffer. After mixing for 40 sec, 25 μl of sodium metabisulfite 20 mg/10 ml 0.05 M Phosphate buffer was added and mixed an additional 40 sec. The mixture was then added to the Sephadex column and eluted first with 0.1 M PBS. Finally, the radiolabeled estradiol was eluted with 0.1 M PBS and 1,4 Dioxane (70:30).
(§2) The standard binding procedure described in Example 2 was used except that radiolabeled estradiol was used as the ligand with 1000× excess non-radioactive estradiol as the competitor. Unlike peptides that initially must bind on the plasma membrane, steroids bind only to intracellular receptors. Thus no radioactivity on the membrane should be found.

[3] = tested on: ZR-75-1 breast cancer cell line; assay: Specific binding of radiolabeled estradiol with time, ZR-75-1; format: cell-based, human
Procedure: as §1, §2

[4] = tested on: MCF-7 breast cancer cell line; assay: Specific binding of radiolabeled estradiol with time, MCF-7; format: cell-based, human
Procedure: as §1, §2

[5] = tested on: neuroendocrine cancers expressing the somatostatin receptor; assay: Pilot clinical trial of monthly 180 mCi doses; format: in vivo, human; conditions: ten patients
Procedure: For six months, pilot clinical trials were conducted in ten human patients with progressive metastatic indolent and symptomatic neuroendocrine cancers expressing the somatostatin receptor. […] The first monthly dose was a bolus injection of 180 mCi. The second monthly dose was infusion of 180 mCi over 72 hr. The third monthly dose was infusion of 180 mCi over 24 hr. Thereafter, all monthly doses were infusion of 180 mCi over 24 hr. Clinical benefits (as evidenced by reduced pain, weight gain, reduced malaise, etc.) occurred in 6 of the 10 neuroendocrine (carcinoid/islet cell) patients. Partial radiographic responses (greater than 50% reduction in the product of perpendicular tumor diameters) occurred in 2 patients, and significant tumor necrosis developed in 7 of the 10 neuroendocrine patients. Treatment-related toxicity included 2 Grade III platelet, 1 Grade II WBC, 1 Grade I WBC and 2 Grade I Hb on the NCI (National Cancer Institute) grading scale.

[6] = tested on: tumor in the left side of the neck (metastatic small cell carcinoma); conditions: in vivo
Procedure: During and after each administration of the last eight doses, a tumor in the left side of the neck was monitored for radioligand uptake with an ion chamber survey meter, a Victoreen 450P ion chamber, which measures external gamma dose rates. Administration of the initial seven doses were by bolus inject ion. The last three doses were delivered by infusion with various activities of radioligand.
The external gamma dose rates from radioligand accumulation in the neck tumor area were measured immediately and 24 hr after injection. After the treatment of the fifth month, the patient was monitored for radioligand uptake for an extended period—at 2, 4, and 8 days after the injection.
Four months after the final bolus dose, the first dose by infusion (“Infusion 1”) was administered. A dose equivalent to the previous bolus dose (175.9 mCi) was given, but the radioligand was administered by infusion over 72 hr at a constant rate of 2.5 mCi/hr.
One month later, in “Infusion 2,” the total dose was increased to 389.2 mCi. By infusion, 189.8 mCi of the radioligand was given over the first 24 hr, 108.6 mCi over the second 24 hr, and 90.8 mCi over the third 24 hr. For each 24 hr period, the infusion rate was kept constant.
One month later, a third dose was administered by infusion (“Infusion 3”). A dose of 301 mCi was infused the first 24 hr period. […]

[7] = tested on: human placental-derived vascular endothelial cells; assay: Binding and internalization in angiogenic vascular endothelial cells; format: cell-based; conditions: 500,000 cells, 500,000 cpm, acid wash, FIG. 17
Text: Human placental-derived vascular endothelial cells were used to assay for cell binding of the somatostatin analog, ^125I-JIC-2D. The radioligand, a somatostatin analog, ^125I-JIC-2D, was made by solid phase peptide synthesis as described in U.S. Pat. No. 5,597,894. This peptide has an amino acid sequence of the following: D-Lys-D-Tyr-D-Lys-D-Tyr-D-Lys-C[Cys-Phe-D-Trp-Lys-Thr-Cys]-Thr-NH2. The cells were obtained by growing discs of human placental veins in fibrinclots for 14 days. […] These discs and their angiogenic sprouts are harvested mechanically and dissociated by vortexing. The vein discs are then discarded and the endothelial cells pooled. Cells were harvested, counted with a hemocytometer, and resuspended in binding buffer (Minimum Essential Medium (MEM), 10 mM Hepes, 0.01% BSA). A standard assay used 500,000 cells in 1 ml of binding buffer. […] At the termination of the experiment, the incubation medium was removed, the cells were rinsed twice with Hanks balanced salt solution (HBSS), and the radioactivity in the cells determined using a gamma counter. This level of radioactivity represents total binding, which includes both membrane-bound and internalized fractions. Specific binding was determined by calculating the difference in the levels of measured radioactivity without the unlabeled competitor minus the radioactivity with the unlabeled competitor. […]

[8] = tested on: human placental vein discs (angiogenic vascular tissue); assay: Human Placental Vein Angiogenesis Model; format: cell-based; conditions: 50 μCi/mL (or equivalent amounts)
Text: Watson et al., “Up-Regulation of Somatostatin Receptor Subtype 2. (SST-2) mRNA Occurs During the Transformation of Human Endothelium to the Angiogenic Phenotype,” Paper Presented at the 12th International Symposium on Regulatory Peptides, Copenhagen, Denmark, September 1996; J. C. Watson et al., “SST-2 Gene Expression Appears During Human Angiogenesis,” Regulatory Peptides, vol. 64, p. 206 (Abstract) (1996); and J. C. Watson et al., “Breast Cancer Increases Initiation of Angiogenesis Without Accelerating Neovessel Growth Rate,” Surgery, vol. 122, pp. 508-14 (1997). Human placental veins were cut into discs of 2 mm diameter and were incorporated into a 0.3% fibrinogen gel. This gel was then overlaid with tissue culture media containing 10-20% fetal calf serum (FCS). Under normal conditions, endothelial cords will begin to sprout from the transected cut edge of the vein discs within six days.
These vein discs were placed into wells of three separate culture plates. One culture plate, the control sample, was allowed to grow without treatment. […] The discs were then incubated for fourteen days. After 14 days the culture plates were examined for the number of wells in which angiogenic growth was initiated. […] The molar concentration of the radiolabeled somatostatin analog added to the culture plates was in the femtomolar range (10^−15). This concentration is 1000× or more below the concentration of unlabeled somatostatin analog that is known to inhibit angiogenesis; a concentration of 10^−5 M to 10^−8 M. Thus any effect was due to the radiolabel and not just the presence of the somatostatin analog. […] Only the radiolabel connected to the somatostatin analog would be incorporated into the DNA. Thus the greater decrease is due to this incorporation and the Auger emission on DNA.
Using a digital image analyzer, the mean area of the sprouting tissue surrounding the discs was measured.
To measure the growth rate of angiogenic vascular tissue, every two days during the 14-day incubation period, the length of sprouts were measured. […]

## ^125I-somatostatin: radiolabeled native somatostatin, very short-lived peptide (AGCKNFFWKTFTSC; ends and bridges not checked; also: 125I label, site not given here; UniProt P61278 103-116, looked up)
IMR-32 cells; 1 hr incubation
  cellular distribution of radioactivity (membrane vs nuclear fractions): both membrane binding and small amounts of nuclear binding
IMR-32 cells; 4 hr incubation
  cellular distribution of radioactivity (membrane vs nuclear fractions): plasma membrane binding appeared to have peaked and the nuclear fraction was dissipating
IMR-32 cells; 24 hr incubation
  cellular distribution of radioactivity (membrane vs nuclear fractions): essentially no plasma membrane or nuclear binding was seen

## CC(C)[C@@H]1NC(=O)[C@H](CCCCN)NC(=O)[C@@H](Cc2c[nH]c3ccccc23)NC(=O)[C@H](Cc2ccc(O)cc2)NC(=O)[C@@H](NC(=O)[C@H](N)Cc2ccc3ccccc3c2)CSSC[C@@H](C(=O)N[C@H](C(N)=O)[C@@H](C)O)NC1=O [lanreotide]
[1]
  biologic half-life: 60-90 min

## ^125I-17-β-estradiol
[2]; 1 Hr
  Specific Binding: 401 CPM
[2]; 4 Hr
  Specific Binding: 506 CPM
[2]; 24 Hr
  Specific Binding: 532 CPM
[2]; 48 Hr
  Specific Binding: 455 CPM
[3]; ZR-75-1, 1 Hr
  Specific Binding: 4102 CPM
[3]; ZR-75-1, 4 Hr
  Specific Binding: 4865 CPM
[3]; ZR-75-1, 24 Hr
  Specific Binding: 3370 CPM
[3]; ZR-75-1, 48 Hr
  Specific Binding: 3057 CPM
[4]; MCF-7, 1 Hr
  Specific Binding: 1605 CPM
[4]; MCF-7, 4 Hr
  Specific Binding: 2253 CPM
[4]; MCF-7, 24 Hr
  Specific Binding: 4109 CPM
[4]; MCF-7, 48 Hr
  Specific Binding: 731 CPM

## C[C@@H](O)[C@@H]1NC(=O)[C@H](CCCCN)NC(=O)[C@@H](Cc2c[nH]c3ccccc23)NC(=O)[C@H](Cc2ccccc2)NC(=O)[C@@H](NC(=O)[C@@H](Cc2ccccc2)NC(=O)CN2CCN3CCN(CC(=O)O)CC(=O)[O][111In]([O]C(=O)C3)[O]C(=O)C2)CSSC[C@@H](C(=O)N[C@H](CO)[C@@H](C)O)NC1=O [^111In-pentetreotide, ^111In-DTPA-D-Phe^1-octreotide]
[5]
  Treatment-related toxicity: Grade I Hb (NCI scale), number of cases: 2
  Treatment-related toxicity: Grade I WBC (NCI scale), number of cases: 1
  Treatment-related toxicity: Grade II WBC (NCI scale), number of cases: 1
  Treatment-related toxicity: Grade III platelet (NCI scale), number of cases: 2
[6]; female, human
  half-life of exponential decay of tumor radioactivity (approached physical half-life of the radioligand): ~67.3 h
[6]
  persistence of tumor foci on gamma camera scintigraphy: still identifiable by gamma scintigraphy thirteen days after completion of the last infusion dose

## D-Lys-D-Tyr-D-Lys-D-Tyr-D-Lys-C[Cys-Phe-D-Trp-Lys-Thr-Cys]-Thr-NH2 [^125I-JIC-2D]
[7]
  binding and internalization: the vast majority of the radioligand was internalized into the cell

## ^111In-Cl
[8]; 14-day incubation, FIG. 20
  growth rate (mm/day) of angiogenic vascular tissue: substantially below that of the control
[8]; 14 days, FIG. 18
  % initiation of angiogenic growth: substantially less than the control plate
[8]; 14 days, FIG. 19
  vessel area (mm^2) of sprouting tissue: substantially less
